Reference: patent US20160113890A1, “COMPOSITION FOR STIMULATING NEOVASCULARIZATION AT A SITE IN A SUBJECT COMPRISING DAPSONE AND USE THEREOF” (Samsung Electronics Co., Ltd., priority 2014, published 2016)

Legend:
C57BL/6 mice [1] = assay: Fluorescein-lectin tracking and immunohistochemical assay on kidney section; type: in vivo, mouse; conditions: old mice, 2.0 mg/kg/d for 3 months
Description: (§1) C57BL/6 mice (hereinafter, also referred to as “B6”) at ages of 7 months and 24 months (female n=18, male n=12, Korean Basic Science Institute) were maintained according to the guideline of the Laboratory Animal Research Center of Sungkyunkwan University School of Medicine. The mice were allowed to have free access to water and feed. Each group of mice (n=5) drank 0.0, 0.5, or 2.0 mg/kg/day of dapsone (available from Tai Guk Pharm. Co.) for 3 months.
(§2) After 3 months, ear skin from both ears, trachea, both retinas, both kidneys, and pancreas were obtained from a mouse selected from each group of mice. In order to obtain these organs, the mouse was anesthetized by intraperitoneal injection of 100 mg/kg of […] (Entobal®) based on the weight of the mouse, […] of 1% paraformaldehyde was flowed through the heart to remove the blood in the body of the mouse. The organs were surgically obtained, and tissue from each of the organs was fixed in 4% of paraformaldehyde for 24 hours to prepare a frozen section having a thickness of 10 um. Immunofluorescence staining using anti-PECAM-1 antibody was performed on a sample of the frozen section. […] The measured fluorescent density denotes a density of endothelial cells, that is, blood vessels. […]

Tie2 = assay: Microarray analysis of gene expression in soleus muscle (Tie2); type: in vivo, mouse; conditions: middle (15 month-old) and old (20 month-old) mice, 2.0 mg/kg/d for 3 months
Description: (§3) In FIG. 9, a vertical axis denotes an expression amount of VEGF or Tie2 gene (fluorescent intensity: arbitrary unit), and a horizontal axis denotes a mouse subject. […] The microarray analysis was performed by using Agilent's Mouse Oligo Microarray (44K, Agilent Technology). 5 months-old, 15 months-old, and 20 months-old C57BL/6J mice had 2 mg/kg/d of dapsone for 3 months. […] After the 3 months, the 8 months-old, 18 months-old, and 23 months-old mice were anesthetized by injecting Entobar (sodium pentobarbital, 100 mg/kg per body weight), and then soleus muscle taken therefrom for microarray analysis was frozen. Ribonucleic acid was isolated from the muscle and used for the microarray analysis.

VEGFR2 = assay: Phosphorylation-specific antibody array of soleus muscle protein; type: in vivo, mouse; conditions: 20 month-old C57BL/6J mice, 2.0 mg/kg/d for 3 months
Description: In FIG. 10, a vertical axis denotes the amount of protein expressed in the experimental group compared to the control group (fluorescent intensity: arbitrary unit), and a horizontal axis denotes the type of phosphorylated protein measured, where the description in parentheses informs residue and location of the phosphorylated amino acid. […] The microarray analysis was performed by using a Phospho Explorer Antibody array (1312 antibodies, FULL MOON Biosystems), soleus muscle of the mice was obtained, protein was isolated therefrom, and used for the microarray analysis. In FIG. 10, p-VR1 and p-VR2 respectively denote phosphorylated VEGFR1 and VEGFR2.

C57BL/6 mice [2] = assay: Immunohistochemical assay (anti-PECAM-1) on mouse ear skin whole-mount; type: in vivo
Description: as §1
as §2, with “section. For the immunofluorescence staining, the sample was blocked in a solution containing 5% donkey serum in phosphate buffered solution (PBS) containing 0.3% Triton-X 100 (0.3% PBST) for 1 hour. The anti-PECAM-1 antibody produced from American hamster was added to the solution to allow a primary reaction with antigen of the tissue at 4° C. for 12 hours. The sample was washed 6 times for 10 minutes with 0.3% PBS-T, and an anti-American hamster-Alexa594 antibody was added to 0.3 PBS-T to allow a secondary reaction with the anti-PECAM-1 antibody at 4° C. for 12 hours. The sample was washed 6 times for 10 minutes, attached to a slide glass, and thus image of the stained sample was obtained by a Carl Zeiss LSM710 confocal microscope.” for “section.”

C57BL/6 mice [3] = assay: Immunohistochemical assay (anti-PECAM-1) on trachea whole-mount of mouse; type: in vivo
Description: as §1
After 3 months, ear skin from both ears, trachea, both retinas, both kidneys, and pancreas were obtained from a mouse selected from each group of mice. In order to obtain these organs, the mouse was anesthetized by intraperitoneal injection of 100 mg/kg of […] (Entobal®) based on the weight of the mouse, […] of 1% paraformaldehyde was flowed through the heart to remove the blood in the body of the mouse. The organs were surgically obtained, and tissue from each of the organs was fixed in 4% of paraformaldehyde for 24 hours to prepare a frozen section having a thickness of 10 um. Immunofluorescence staining using anti-PECAM-1 antibody was performed on a sample of the frozen section. For the immunofluorescence staining, the sample was blocked in a solution containing 5% donkey serum in phosphate buffered solution (PBS) containing 0.3% Triton-X 100 (0.3% PBST) for 1 hour. The anti-PECAM-1 antibody produced from American hamster was added to the solution to allow a primary reaction with antigen of the tissue at 4° C. for 12 hours. The sample was washed 6 times for 10 minutes with 0.3% PBS-T, and an anti-American hamster-Alexa594 antibody was added to 0.3 PBS-T to allow a secondary reaction with the anti-PECAM-1 antibody at 4° C. for 12 hours. The sample was washed 6 times for 10 minutes, attached to a slide glass, and thus image of the stained sample was obtained by a Carl Zeiss LSM710 confocal microscope. Each of the images was sequentially taken with respect to the tissue having a thickness in a range of about 100 um to about 300 um as an axis, and then all the sub-images were projected in a z-axis direction. Thus the image is a projection image. Platelet endothelial cell adhesion molecule (PECAM-1) is also referred to as cluster of differentiation 31 (CD31), which is found in platelets or monocytes and on a surface of some types of T-cells, and constitutes most of endothelial cell intercellular junction. […] The measured fluorescent density denotes a density of endothelial cells, that is, blood vessels. Also, in terms of kidney tissue sections and pancreas tissue section, Fluorescein labeled Lycopersicon esculentum (tomato) lectin (hereinafter, also referred to as “Fluorescein-lectin”) was used as a tracer to verify blood vessel functionality of the sample. […]

C57BL/6 mice [4] = assay: Fluorescein-lectin tracking and immunohistochemical assay on pancreas section; type: in vivo, mouse; conditions: old mice, 2.0 mg/kg/d for 3 months
Description: as §1, §2

VEGF = assay: Microarray analysis of gene expression in soleus muscle (VEGF); type: in vivo, mouse; conditions: middle (15 month-old) and old (20 month-old) mice, 2.0 mg/kg/d for 3 months
Description: as §3

[5] = old mice (27 months-old), 2.0 mg/kg/d for 3 months (O2 vs O0)

Compound: Nc1ccc(S(=O)(=O)c2ccc(N)cc2)cc1 [dapsone, 4-[(4-aminobenzene)sulfonyl]aniline]
- blood vessel functionality (Fluorescein-lectin perfusion of PECAM-1 positive vessels) (C57BL/6 mice [1]): recovered to the similar level of the control group
- level of Tie2 gene expression vs control groups (Tie2): did not change significantly
- phosphorylation of VEGFR2 at T1175, T1059 and T1054 vs control group (VEGFR2): significantly increased phosphorylation
- blood vessel density (PECAM-1 Alexa 594 fluorescence intensity) vs control group (C57BL/6 mice [2]; [5]): significant difference
- blood vessel density (PECAM-1 Alexa 594 fluorescence intensity) vs control group (C57BL/6 mice [2]; young mice (7 months-old), 0.5 mg/kg/d for 3 months (Y0.5 vs Y0)): no significant difference
- blood vessel density (PECAM-1 Alexa 594 fluorescence intensity) vs control group (C57BL/6 mice [2]; young mice (7 months-old), 2.0 mg/kg/d for 3 months (Y2 vs Y0)): no significant difference
- blood vessel density (PECAM-1 Alexa 594 fluorescence intensity) vs control group (C57BL/6 mice [3]; old mice (27 months-old), 0.5 mg/kg/d for 3 months (O0.5 vs O0)): significant difference
- blood vessel density (PECAM-1 Alexa 594 fluorescence intensity) vs control group (C57BL/6 mice [3]; [5]): significant difference
- blood vessel density (PECAM-1 Alexa 594 fluorescence intensity) vs control group (C57BL/6 mice [3]; young mice (7 months-old), 0.5 mg/kg/d in drinking water for 3 months (Y0.5 vs Y0)): no significant difference
- blood vessel density (PECAM-1 Alexa 594 fluorescence intensity) vs control group (C57BL/6 mice [3]; young mice (7 months-old), 2.0 mg/kg/d in drinking water for 3 months (Y2 vs Y0)): no significant difference
- amount of blood vessels with decreased functionality (Fluorescein-lectin negative) (C57BL/6 mice [4]): reduced
- expression of VEGF gene vs control groups (VEGF): increased
